Data set [1] addresses T1, Monoacylglycerol lipase ABHD6 (Homo sapiens) (UniProt Q9BV23).
T1 sequence (whole entry): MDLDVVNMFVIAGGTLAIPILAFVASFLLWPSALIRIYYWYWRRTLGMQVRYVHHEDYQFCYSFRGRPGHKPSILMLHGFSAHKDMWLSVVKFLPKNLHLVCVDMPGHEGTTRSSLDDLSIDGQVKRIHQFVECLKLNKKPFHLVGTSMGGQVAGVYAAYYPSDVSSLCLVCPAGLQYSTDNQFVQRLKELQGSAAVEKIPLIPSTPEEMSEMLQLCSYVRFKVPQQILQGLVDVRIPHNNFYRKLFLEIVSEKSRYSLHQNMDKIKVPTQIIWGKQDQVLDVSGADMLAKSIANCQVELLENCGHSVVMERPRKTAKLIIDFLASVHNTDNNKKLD
Description: Inhibition of human ABHD6 at >10 uM.

The target in data set [2] is Cannabinoid receptor 2 (Homo sapiens) (UniProt P34972). The experiment in a line: Displacement of [3H]CP-55,940 from recombinant human CB2 receptor expressed in HEK293 cells at >1 uM after 1 hr by scintillation counting method. The format is cell-based.
The target in data set [3] is Cannabinoid receptor 2 (Mus musculus) (UniProt P47936). Description: Displacement of [3H]CP-55,940 from recombinant mouse CB2 receptor expressed in HEK293 cells at >1 uM after 1 hr by scintillation counting method. The format is cell-based.
Data set [4] deals with Cannabinoid receptor 1 (Rattus norvegicus, UniProt P20272). The experiment in a line: Displacement of [3H]CP-55,940 from rat CB1 receptor at >1 uM after 1 hr by scintillation counting method.
For data set [5], the target named is T2, Fatty-acid amide hydrolase 1 (Rattus norvegicus, UniProt P97612).
T2 sequence (P97612 whole entry): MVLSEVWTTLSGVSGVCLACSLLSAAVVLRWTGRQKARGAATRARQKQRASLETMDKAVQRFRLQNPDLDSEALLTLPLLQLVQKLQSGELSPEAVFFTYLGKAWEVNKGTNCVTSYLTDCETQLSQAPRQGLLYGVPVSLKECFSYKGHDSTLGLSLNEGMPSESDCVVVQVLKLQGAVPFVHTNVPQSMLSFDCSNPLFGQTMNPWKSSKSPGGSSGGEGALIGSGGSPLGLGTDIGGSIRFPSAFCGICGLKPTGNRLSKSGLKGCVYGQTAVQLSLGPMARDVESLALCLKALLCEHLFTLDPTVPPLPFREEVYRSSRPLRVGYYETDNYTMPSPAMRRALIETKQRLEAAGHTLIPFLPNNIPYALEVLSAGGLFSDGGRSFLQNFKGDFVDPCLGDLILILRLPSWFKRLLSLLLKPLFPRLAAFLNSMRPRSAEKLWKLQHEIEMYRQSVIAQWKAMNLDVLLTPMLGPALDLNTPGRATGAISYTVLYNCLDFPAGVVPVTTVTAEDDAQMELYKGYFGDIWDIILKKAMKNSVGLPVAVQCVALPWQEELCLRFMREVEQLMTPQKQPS
The experiment in a line: Inhibition of rat FAAH using AAMCA as substrate by fluorescence assay.

A short description of data set [6]: Half life in human liver microsomes pretreated with compounds followed by NADPH addition by LC-MS/MS analysis. The class given is ADME, Microsome.
A short description of data set [7]: Half life in rat liver microsomes pretreated with compounds followed by NADPH addition by LC-MS/MS analysis. The format is ADME, Microsome.
The nature of data set [8]: Half life in mouse liver microsomes pretreated with compounds followed by NADPH addition by LC-MS/MS analysis. The class given is ADME, Microsome.
Data set [9] in a line: Half life in mouse plasma at 200 uM by HPLC analysis. The format is ADME, cell-free.
The nature of data set [10]: Half life in rat plasma at 200 uM by HPLC analysis. The format is ADME, cell-free.
The nature of data set [11]: Half life in human plasma at 200 uM by HPLC analysis. The class given is ADME, cell-free.
Data set [12] can be described thus: Oral bioavailability in CD1 mouse at 10 mg/kg. The class given is ADME, organism-based. Particulars: in vivo.
Data set [13] in a line: Drug uptake in CD1 mouse brain at 2 mg/kg, iv or 10 mg/kg, po. Conditions: in vivo. The class given is ADME, organism-based.
Data set [14] is described as follows: Mean residence time in CD1 mouse at 2 mg/kg, iv or 10 mg/kg, po. The format is ADME, organism-based. Particulars: in vivo.
Data set [15] relates to Mus musculus. Description: Anti-glaucoma activity in normotensive C57BL/6J mouse assessed as intraocular pressure at 3 mM administered as single topical treatment measured after 28 hrs by tonometry (reference value: […] +/- 1.1 mmHg). The format is functional.

Each structure is given as a SMILES string. Activity calls are given as the source filed them. No cut-off for these calls is given here.

Chain of Cannabinoid receptor 2 (Mus musculus) (P47936 whole entry): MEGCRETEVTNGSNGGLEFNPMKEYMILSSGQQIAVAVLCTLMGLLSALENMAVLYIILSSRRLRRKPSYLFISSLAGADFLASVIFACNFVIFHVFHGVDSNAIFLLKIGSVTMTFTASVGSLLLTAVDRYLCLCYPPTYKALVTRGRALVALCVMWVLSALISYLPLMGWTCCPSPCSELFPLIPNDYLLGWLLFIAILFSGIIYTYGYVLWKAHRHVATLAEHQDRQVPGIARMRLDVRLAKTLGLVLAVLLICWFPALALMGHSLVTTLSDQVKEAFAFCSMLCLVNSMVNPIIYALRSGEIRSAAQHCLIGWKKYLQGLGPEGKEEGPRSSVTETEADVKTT
Chain of Cannabinoid receptor 2 (Homo sapiens) (P34972 whole entry): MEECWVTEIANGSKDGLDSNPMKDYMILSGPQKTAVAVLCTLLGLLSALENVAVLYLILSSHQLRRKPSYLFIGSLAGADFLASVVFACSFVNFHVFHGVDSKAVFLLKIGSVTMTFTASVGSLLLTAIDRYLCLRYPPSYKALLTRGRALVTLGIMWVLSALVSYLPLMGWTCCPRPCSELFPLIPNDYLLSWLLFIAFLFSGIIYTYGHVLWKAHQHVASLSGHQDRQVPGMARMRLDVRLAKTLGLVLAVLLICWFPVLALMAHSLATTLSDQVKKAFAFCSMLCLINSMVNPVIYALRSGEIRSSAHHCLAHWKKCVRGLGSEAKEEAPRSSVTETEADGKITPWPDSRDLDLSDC
Chain of Cannabinoid receptor 1 (P20272 whole entry): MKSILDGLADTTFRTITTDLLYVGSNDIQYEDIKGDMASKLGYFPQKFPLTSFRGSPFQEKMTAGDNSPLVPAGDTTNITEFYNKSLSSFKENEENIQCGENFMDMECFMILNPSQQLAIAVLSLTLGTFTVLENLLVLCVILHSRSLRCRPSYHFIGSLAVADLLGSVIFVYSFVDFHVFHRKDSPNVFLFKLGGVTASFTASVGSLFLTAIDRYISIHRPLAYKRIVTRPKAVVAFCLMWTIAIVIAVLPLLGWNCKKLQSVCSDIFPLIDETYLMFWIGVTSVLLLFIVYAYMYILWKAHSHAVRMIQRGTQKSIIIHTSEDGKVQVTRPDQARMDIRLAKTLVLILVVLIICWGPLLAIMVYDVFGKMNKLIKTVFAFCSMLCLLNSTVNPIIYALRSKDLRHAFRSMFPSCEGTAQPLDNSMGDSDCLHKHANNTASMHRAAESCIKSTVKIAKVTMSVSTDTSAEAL

In the case of `O=C(Oc1ccccc1)N1CCN(C(c2ccccc2)c2ccccc2)CC1`, in [1], the inhibition result was “inactive”. Further, the result in data set [2] and in data set [3] was inactive. Further, the Activity entry in data set [4] is “Not Active”.

`N#Cc1cccc(OC(=O)N2CCC(NC(c3ccccc3)c3ccccc3)CC2)c1` returned an IC50 in [5] greater than 1000 nM. Also, the inhibition result in data set [1] is “inactive”. In addition, the outcome in data set [2] and in data set [3] was inactive. Further, the Activity entry in data set [4] was “Not Active”.

For the compound `N#Cc1cc(F)cc(OC(=O)N2CCC(C(c3ccccc3)c3ccccc3)CC2)c1`, in [5], the IC50 was greater than 1000 nM. Also, the inhibition result in data set [1] is “inactive”. The result in [2] and in data set [3] was inactive. The Activity result in data set [4] is reported as “Not Active”.

In turn, `Cc1cc(C#N)cc(OC(=O)N2CCC(C(c3ccccc3)c3ccccc3)CC2)c1` displayed an IC50 in data set [5] greater than 1000 nM. In addition, the inhibition result in data set [1] was “inactive”. Moreover, the result in [2] and in [3] was inactive. Besides, the Activity result in data set [4] is recorded as “Not Active”.

For the compound `N#Cc1ccc(F)c(OC(=O)N2CCC(C(c3ccccc3)c3ccccc3)CC2)c1`, in [5], the IC50 is greater than 1000 nM. Moreover, the inhibition entry in data set [1] is “inactive”. Moreover, the outcome in [2] and in [3] was inactive. Moreover, in [4], the Activity entry is “Not Active”.

For the compound `N#Cc1ccnc(OC(=O)N2CCC(C(c3ccccc3)c3ccccc3)CC2)c1`, in [5], the IC50 was greater than 1000 nM. Further, the inhibition result in [1] was “inactive”. Moreover, the outcome in [2] and in [3] was inactive. For the same compound, the Activity entry in data set [4] is “Not Active”.

For the compound `N#Cc1cccc(OC(=O)N2CCN(C(c3ccc(F)cc3)c3ccc(F)cc3)CC2)c1`, in data set [5], the IC50 was greater than 1000 nM. Also, the inhibition result in data set [1] is “inactive”. Besides, the result in data set [2] and in data set [3] was inactive. The Activity entry in data set [4] is given as “Not Active”.

`N#Cc1cccc(OC(=O)N2CCN(C(c3ccccc3)c3ccccc3)CC2)c1`: the IC50 in [5] is greater than 1000 nM. Also, in [1], the inhibition result is “inactive”. Also, the result in data set [2] and in data set [3] was inactive. Moreover, in data set [4], the Activity entry is recorded as “Not Active”.

Turning to `CC(C)N1CCN(C(=O)Oc2cccc(C#N)c2)CC1`, in data set [5], half-maximal inhibition (IC50) was put at 68 nM. Further, the inhibition entry in data set [1] was “inactive”. The result in [2] and in [3] was inactive. In addition, the Activity result in data set [4] is given as “Not Active”.

In turn, `N#Cc1cc(O)cc(OC(=O)N2CCC(C(c3ccccc3)c3ccccc3)CC2)c1` gave an IC50 in [5] greater than 1000 nM. Also, the inhibition entry in [1] was “inactive”. For the same compound, the outcome in data set [2] and in [3] was inactive. The Activity result in [4] is “Not Active”.

In [5], `N#Cc1cccc(OC(=O)N2CCN(C3CCCCC3)CC2)c1` displayed an IC50 of 67 nM. Also, the inhibition entry in data set [1] was “inactive”. In addition, the outcome in data set [2] and in data set [3] was inactive. The Activity entry in data set [4] is on record as “Not Active”.

In the case of `N#Cc1cccc(OC(=O)N2CCC(S(=O)(=O)C(c3ccccc3)c3ccccc3)CC2)c1`, in data set [1], the inhibition result is “inactive”. For the same compound, the outcome in data set [2] and in data set [3] was inactive. Further, the Activity result in data set [4] is reported as “Not Active”.

`N#Cc1cccc(OC(=O)N2CCN(C(c3ccccc3)c3cccnc3)CC2)c1` (stereo not drawn) returned a concentration for half-maximal inhibition (IC50) in [5] greater than 1000 nM. Further, in data set [1], the inhibition entry was “inactive”. The result in [2] and in [3] was inactive. The Activity result in data set [4] was “Not Active”.

Consider `N#Cc1cccc(OC(=O)N2CCN(C3c4ccccc4-c4ccccc43)CC2)c1`, for which, in data set [5], the IC50 is greater than 1000 nM. Besides, the inhibition entry in data set [1] was “inactive”. Further, the result in [2] and in data set [3] was inactive. Moreover, in data set [4], the Activity entry is “Not Active”.

`N#Cc1cccc(OC(=O)N2CCC(C(c3ccc(Cl)cc3)c3ccc(Cl)cc3)CC2)c1` registered an IC50 in [5] greater than 1000 nM. In data set [1], the inhibition result was “inactive”. Besides, the result in data set [2] and in data set [3] was inactive. In data set [4], the Activity result is given as “Not Active”.

With `COc1cc(C#N)cc(OC(=O)N2CCC(C(c3ccccc3)c3ccccc3)CC2)c1`, in data set [5], the IC50 was greater than 1000 nM. Further, in data set [1], the inhibition result was “inactive”. Moreover, the outcome in [2] and in [3] was inactive. In data set [4], the Activity entry is recorded as “Not Active”.

In [5], `N#Cc1cccc(OC(=O)N2CCC(C(c3ccccc3)c3ccccc3)CC2)n1` gave an IC50 greater than 1000 nM. For the same compound, the inhibition result in [1] is “inactive”. In addition, the outcome in data set [2] and in data set [3] was inactive. Further, the Activity entry in data set [4] is “Not Active”.

On to `N#Cc1cccc(OC(=O)N2CCN(C3CC3)CC2)c1`, for which the IC50 in data set [5] came to 63 nM. In addition, the inhibition entry in data set [1] was “inactive”. In addition, the result in data set [2] and in data set [3] was inactive. Also, in [4], the Activity entry was “Not Active”.

For `N#Cc1cccc(OC(=O)N2CCC(C(c3ccccc3)c3ccccc3)CC2)c1`, the half-maximal inhibitory concentration (IC50) in data set [5] is greater than 1000 nM. Further, the inhibition result in [1] is “inactive”. The result in data set [2] and in data set [3] was inactive. Further, the t1/2 is 2.03 h in data set [6]; 0.717 h in data set [7]; 0.333 h in [8]; greater than 2 h in data set [9]; greater than 2 h in data set [10]; greater than 2 h in data set [11]. In data set [12], the bioavailability came to 15%. Further, the Drug uptake in data set [13] amounted to 65%. The MRT in [14] turned out to be 6 h. Besides, the Activity in [15] is 19.9 mmHg; in data set [4], “Not Active”.

In the case of `N#Cc1cccc(OC(=O)N2CCC(OC(c3ccccc3)c3ccccc3)CC2)c1`, the IC50 in [5] was greater than 1000 nM. In data set [1], the inhibition entry is “inactive”. The outcome in [2] and in data set [3] was inactive. In [4], the Activity entry is reported as “Not Active”.

Values taken from ChEMBL document CHEMBL4382224, “Synthesis and evaluation of potent and selective MGL inhibitors as a glaucoma treatment” (Bioorg Med Chem, 2019).
